Data reported in paper PMC5085765, “Discovery of Potent Carbonic Anhydrase and Acetylcholinesterase Inhibitors: 2-Aminoindan β-Lactam Derivatives” (International Journal of Molecular Sciences, 2016).

What was measured:
hCA I = target: T1, hCA I (Homo sapiens, UniProt P00915); assay: hCA I inhibition, esterase assay with p-nitrophenylacetate as substrate; format: biochemical; settings: NPA substrate; for Ki: Lineweaver-Burk plots; for IC50: purified from human erythrocytes
T1 construct: from tissue; host or cells: human erythrocytes
Protocol: (§1) Erythrocytes were obtained from the Research Hospital at Atatürk University. The red cells were haemolysed with ice-cold water after washing with 0.9% NaCl. The hemolysate was applied to the prepared Sepharose-4B-tyrosine-sulfanylamide affinity gel. Both CA isoenzymes were purified by Sepharose-4B-L-tyrosine-sulfanilamide affinity chromatography in a single step [58, 59, 60]. Sepharose-4B-L-tyrosine-sulfanilamide was prepared according to a previous method. Thus, homogenate solution acidity was adjusted and supernatant was transferred to the previously prepared Sepharose-4B-L-tyrosine-sulphanilamide affinity column. The proteins flow in the column eluates was spectrophotometrically determined at 280 nm. All purification steps were performed at 4 °C. Protein quantity was determined at 595 nm according to the Bradford method. Bovine serum albumin was used as the standard protein [64, 65, 66]. To monitor purification of both isoenzymes, sodium dodecyl sulphate-polyacrylamide gel electrophoresis (SDS-PAGE) was used according to the procedure of Laemmli. In this application, the imaging method was performed in 10% and 3% acrylamide for the running and the stacking gel, respectively, with 0.1% SDS [68, 69, 70].
(§2) Enzyme activity was determined hydrolysis of p-nitrophenylacetate (PNA) to p-nitrophenolate at 348 nm according to the method of Verpoorte et al. and described previously. The inhibitory effects of β-lactam derivatives 2a–k were examined. To obtain the half maximal inhibitory concentration (IC50) values, CA I, and II activity was measured in the presence of β-lactam derivatives at different cuvette concentrations. Activity (%)-[β-lactam] graph was drawn for each of the β-lactam derivatives 2a–k. To determine Ki values, three different β-lactam derivative concentrations were tested. In these experiments, different substrate (PNA) concentrations were used and Lineweaver-Burk curves were drawn as previously described.

hCA II = target: T2, hCA II (Homo sapiens, UniProt P00918); assay: hCA II inhibition, esterase assay with p-nitrophenylacetate as substrate; format: biochemical; settings: NPA substrate; for Ki: Lineweaver-Burk plots; for IC50: purified from human erythrocytes
T2 construct: from tissue; host or cells: human erythrocytes
Protocol: as §1, §2

T1 sequence (P00915 whole entry): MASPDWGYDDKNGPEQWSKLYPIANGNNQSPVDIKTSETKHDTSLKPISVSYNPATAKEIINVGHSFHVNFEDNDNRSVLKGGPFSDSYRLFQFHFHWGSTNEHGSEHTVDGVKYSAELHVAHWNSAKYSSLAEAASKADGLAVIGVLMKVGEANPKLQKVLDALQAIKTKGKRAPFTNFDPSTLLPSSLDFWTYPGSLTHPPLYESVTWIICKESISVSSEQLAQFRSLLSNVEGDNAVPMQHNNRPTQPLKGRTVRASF

CC(=O)O[C@@H]1C(=O)N(C2Cc3ccccc3C2)[C@@H]1c1cccc(C)c1 (relative stereo) [Compound 2d, (3S*,4R*)-1-(2,3-Dihydro-1H-inden-2-yl)-2-oxo-4-m-tolylazetidin-3-yl acetate]
Ki (hCA I): 1.49 ± 0.29 nM | IC50 (hCA I): 0.231 nM | Ki (hCA II): 3.26 ± 0.708 nM | IC50 (hCA II): 4.18 nM

CC(=O)O[C@@H]1C(=O)N(C2Cc3ccccc3C2)[C@@H]1c1ccc(C)cc1 (relative stereo) [Compound 2c, (3S*,4R*)-1-(2,3-Dihydro-1H-inden-2-yl)-2-oxo-4-p-tolylazetidin-3-yl acetate]
Ki (hCA I): 1.5 ± 0.657 nM | IC50 (hCA I): 2.11 nM | Ki (hCA II): 2.96 ± 0.157 nM | IC50 (hCA II): 3.71 nM

CC(=O)O[C@@H]1C(=O)N(C2Cc3ccccc3C2)[C@@H]1c1ccccc1[N+](=O)[O-] (relative stereo) [Compound 2j, (3S*,4R*)-1-(2,3-Dihydro-1H-inden-2-yl)-2-(2-nitrophenyl)-4-oxoazetidin-3-yl acetate]
Ki (hCA I): 1.09 ± 0.136 nM | IC50 (hCA I): 4.81 nM | Ki (hCA II): 2.88 ± 1.17 nM | IC50 (hCA II): 5.02 nM

CC(=O)O[C@@H]1C(=O)N(C2Cc3ccccc3C2)[C@@H]1c1cccc(Br)c1 (relative stereo) [Compound 2g, (3S*,4R*)-2-(3-Bromophenyl)-1-(2,3-dihydro-1H-inden-2-yl)-4-oxoazetidin-3-yl acetate]
Ki (hCA I): 0.35 ± 0.105 nM | IC50 (hCA I): 0.652 nM | Ki (hCA II): 3.39 ± 1.16 nM | IC50 (hCA II): 3.81 nM

CC(=O)O[C@@H]1C(=O)N(C2Cc3ccccc3C2)[C@@H]1c1ccc(F)cc1 (relative stereo) [Compound 2k, (3S*,4R*)-1-(2,3-Dihydro-1H-inden-2-yl)-2-(4-fluorophenyl)-4-oxoazetidin-3-yl acetate]
Ki (hCA I): 0.94 ± 0.43 nM | IC50 (hCA I): 2.5 nM | Ki (hCA II): 1.34 ± 0.539 nM | IC50 (hCA II): 6.86 nM

CC(=O)O[C@@H]1C(=O)N(C2Cc3ccccc3C2)[C@@H]1c1ccccc1Br (relative stereo) [Compound 2h, (3S*,4R*)-2-(2-Bromophenyl)-1-(2,3-dihydro-1H-inden-2-yl)-4-oxoazetidin-3-yl acetate]
Ki (hCA I): 0.91 ± 0.143 nM | IC50 (hCA I): 2.65 nM | Ki (hCA II): 2.19 ± 0.921 nM | IC50 (hCA II): 5.21 nM

CC(=O)O[C@@H]1C(=O)N(C2Cc3ccccc3C2)[C@@H]1c1cccc(Cl)c1 (relative stereo) [Compound 2e, (3S*,4R*)-2-(3-Chlorophenyl)-1-(2,3-dihydro-1H-inden-2-yl)-4-oxoazetidin-3-yl acetate]
Ki (hCA I): 6.29 ± 2.07 nM | IC50 (hCA I): 3.98 nM | Ki (hCA II): 8.34 ± 3.53 nM | IC50 (hCA II): 5.83 nM

CC(=O)O[C@@H]1C(=O)N(C2Cc3ccccc3C2)[C@@H]1c1ccc(Cl)c(Cl)c1 (relative stereo) [Compound 2f, (3S*,4R*)-2-(3,4-Dichlorophenyl)-1-(2,3-dihydro-1H-inden-2-yl)-4-oxoazetidin-3-yl acetate]
Ki (hCA I): 1.16 ± 0.514 nM | IC50 (hCA I): 1.63 nM | Ki (hCA II): 1.5 ± 0.421 nM | IC50 (hCA II): 5.97 nM

COc1cccc([C@@H]2[C@H](OC(C)=O)C(=O)N2C2Cc3ccccc3C2)c1 (relative stereo) [Compound 2b, (3S*,4R*)-1-(2,3-Dihydro-1H-inden-2-yl)-2-(3-methoxyphenyl)-4-oxoazetidin-3-yl acetate]
Ki (hCA I): 1.41 ± 0.547 nM | IC50 (hCA I): 2.3 nM | Ki (hCA II): 3.15 ± 1.14 nM | IC50 (hCA II): 6.42 nM

CC(=O)O[C@@H]1C(=O)N(C2Cc3ccccc3C2)[C@@H]1c1ccccc1 (relative stereo) [Compound 2a, (3S*,4R*)-1-(2,3-Dihydro-1H-inden-2-yl)-2-oxo-4-phenylazetidin-3-yl acetate]
Ki (hCA I): 0.44 ± 0.115 nM | IC50 (hCA I): 0.612 nM | Ki (hCA II): 3.54 ± 0.405 nM | IC50 (hCA II): 5.21 nM

CC(=O)OC1C(=O)N(C2Cc3ccccc3C2)C1c1ccc(Br)cc1 (stereo not drawn) [Compound 2ı, (3S*,4R*)-2-(4-Bromophenyl)-1-(2,3-dihydro-1H-inden-2-yl)-4-oxoazetidin-3-yl acetate]
Ki (hCA I): 0.97 ± 0.245 nM | IC50 (hCA I): 2.55 nM | Ki (hCA II): 0.93 ± 0.295 nM | IC50 (hCA II): 4.03 nM
